Our source for the IC50 and inhibition values is patent publication US20050148586A1 (priority 2004, published 2005).

The target of this assay is T1, glycogen phosphorylase (from rabbit muscle, Sigma P1261) (Oryctolagus cuniculus, UniProt P00489).
T1 construct: glycogen phosphorylase (from rabbit muscle, Sigma P1261); purchased Sigma P1261; host or cells: rabbit muscle (tissue-derived)
T1 sequence (P00489 2-843 limits assumed): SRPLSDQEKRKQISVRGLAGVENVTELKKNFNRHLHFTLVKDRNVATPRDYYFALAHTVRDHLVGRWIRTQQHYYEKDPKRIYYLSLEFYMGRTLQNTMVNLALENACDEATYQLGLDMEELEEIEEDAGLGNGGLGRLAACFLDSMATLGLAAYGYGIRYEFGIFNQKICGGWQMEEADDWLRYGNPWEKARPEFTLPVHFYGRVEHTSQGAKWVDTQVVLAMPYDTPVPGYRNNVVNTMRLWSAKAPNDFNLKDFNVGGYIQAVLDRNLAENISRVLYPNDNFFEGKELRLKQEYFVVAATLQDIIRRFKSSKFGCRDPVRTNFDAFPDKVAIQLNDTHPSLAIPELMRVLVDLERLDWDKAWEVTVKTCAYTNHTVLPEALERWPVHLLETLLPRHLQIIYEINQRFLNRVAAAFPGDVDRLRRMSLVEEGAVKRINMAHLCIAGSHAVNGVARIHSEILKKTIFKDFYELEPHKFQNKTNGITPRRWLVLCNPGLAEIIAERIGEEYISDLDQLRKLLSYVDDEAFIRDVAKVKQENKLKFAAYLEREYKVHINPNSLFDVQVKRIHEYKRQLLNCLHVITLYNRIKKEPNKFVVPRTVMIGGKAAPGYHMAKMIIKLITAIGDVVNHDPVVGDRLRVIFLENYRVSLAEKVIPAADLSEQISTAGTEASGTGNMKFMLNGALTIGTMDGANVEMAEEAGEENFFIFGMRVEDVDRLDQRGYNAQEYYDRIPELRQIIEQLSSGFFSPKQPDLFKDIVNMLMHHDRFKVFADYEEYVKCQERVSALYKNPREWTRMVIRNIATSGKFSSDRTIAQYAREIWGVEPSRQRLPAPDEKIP
Kind of assay: Enzyme Inhibition Assay (malachite green phosphate readout). The class given is biochemical. The following applies: for IC50: +/−.05; for inhibition at 20 µM: @ 20 μM test compound, percent inhibition (±10%) of enzymatic activity. As for the experimental part:
All samples contain 2% DMSO, and the background lacks enzyme but contains all substrates. The reaction was stopped by the addition of […] of a 1N HCl solution containing 10 mg/ml ammonium molybdate and 0.38 mg/ml malachite green. After a 15-minute incubation period to allow the colored reaction (a quantitative measurement of inorganic phosphate) to develop, the colored wells were read at 650 nm. Data was reported as percent inhibition (±10%) of enzymatic activity at a specified concentration.

For the molecule `Cn1c(=O)c(Nc2ccc(C(=O)Nc3ccno3)cc2)nc2ccccc21` [Compound 7, N-Isoxazol-5-yl-4-(4-Methyl-3-oxo-3,4-dihydro-quinoxalin-2ylamino)-benzamide], inhibition was half-maximal at 120 nM (IC50) and the inhibition at 20 µM came to 92%.
The molecule `Cn1ccc(NC(=O)c2ccc(Nc3nc4ccccc4n(C)c3=O)cc2)n1` [Compound 8] came in with an IC50 of 890 nM and an inhibition at 20 µM of 95%.
In the case of `Cn1c(=O)c(Nc2ccc(C(=O)Nc3ccsc3)cc2)nc2ccccc21` [Compound 9, 4-(4-Methyl-3-oxo-3,4-dihydro-quinoxalin-2ylamino)-N-thiophen-3-yl-benzamide], the IC50 came out at 710 nM and the inhibition at 20 µM is 93%.
For the molecule `Cn1c(=O)c(Nc2ccc(C(=O)Nc3cnccn3)cc2)nc2ccccc21` [Compound 12, 4-(4-Methyl-3-oxo-3,4-dihydro-quinoxalin-2ylamino)-N-pyrazin-2-yl-benzamide], the half-inhibitory concentration (IC50) came to 1300 nM and 20 µM produced 68% inhibition.
For `Cn1c(=O)c(Nc2ccc(NC(=O)c3cccnc3)cc2)nc2ccccc21` [Compound 16, N-[4-(4-Methyl-3-oxo-3,4-dihydro-quinoxalin-2ylamino)-phenyl]-nicotinamide], in that order: 800 nM and 97%.
For `Cn1c(=O)c(Nc2ccc(NC(=O)c3cccs3)cc2)nc2ccccc21` [Compound 17, Thiophene-2-carboxylic acid[4-(4-Methyl-3-oxo-3,4-dihydro-quinoxalin-2ylamino)-phenyl]-amide] the same measures were 1500 nM and 70%.
The molecule `Cn1c(=O)c(Nc2ccc(NC(=O)c3ccco3)cc2)nc2ccccc21` [Compound 18, Furan-2-carboxylic acid[4-(4-Methyl-3-oxo-3,4-dihydro-quinoxalin-2ylamino)-phenyl]-amide] came in with a 50% inhibitory concentration (IC50) of 2500 nM and an inhibition at 20 µM of 80%.
For `Cn1cccc1C(=O)Nc1ccc(Nc2nc3ccccc3n(C)c2=O)cc1` [Compound 19, 1-Methyl-1H-pyrrole-2-carboxylic acid[4-(4-Methyl-3-oxo-3,4-dihydro-quinoxalin-2ylamino)-phenyl]-amide] the same measures were 5000 nM and 77%.
For `Cn1c(=O)c(Nc2ccc(-c3ccc[nH]3)cc2)nc2ccccc21` [Compound 22, 1-Methyl-3-[4-(1H-pyrrol-2-yl)-phenylamino]-1H-quinoxalin-2-one], the concentration for half-maximal inhibition (IC50) was determined as 2500 nM and the inhibition at 20 µM is 92%.
Molecule `Cn1c(=O)c(Nc2ccc(-n3ccnc3)cc2)nc2ccccc21` [Compound 23, 3-(4-imidazol-1-yl-phenylamino)-1-methyl-1H-quinoxalin-2-one] had an IC50 of 2500 nM and an inhibition at 20 µM of 82%.
Molecule `CCn1c(=O)c(Nc2ccc(C(=O)Nc3ccon3)cc2)nc2ccccc21` [Compound 28, N-Isoxazol-3-yl-4-(4-Ethyl-3-oxo-3,4-dihydro-quinoxalin-2ylamino)-benzamide] returned a 50% inhibitory concentration (IC50) of 120 nM and an inhibition at 20 µM of 100%.
The molecule `CCn1c(=O)c(Nc2ccc(C(=O)Nc3cc[nH]n3)cc2)nc2ccccc21` [Compound 29, 4-(4-Ethyl-3-oxo-3,4-dihydro-quinoxalin-2ylamino)-N-(1H-pyrazol-3-yl)-benzamide] had a 50% inhibitory concentration (IC50) of 460 nM and an inhibition at 20 µM of 100%.
For `CCn1c(=O)c(Nc2ccc(C(=O)Nc3nccs3)cc2)nc2ccccc21` [Compound 30, 4-(4-Ethyl-3-oxo-3,4-dihydro-quinoxalin-2ylamino)-N-thiazol-2-yl-benzamide], in that order: 830 nM and 90%.
For `Cn1c(=O)c(Nc2ccc(C(=O)Nc3ccon3)cc2)nc2cccnc21` [Compound 36, N-Isoxazol-3-yl-4-(4-Methyl-3-oxo-3,4-dihydro-pyrido[2,3-b]pyrazin-2-ylamino)-benzamide], in that order: 320 nM and 96%.
With `O=C(NCc1cccs1)c1ccc(Nc2nc3ccccc3n(CCO)c2=O)cc1` [Compound 51], the concentration for half-maximal inhibition (IC50) was found to be 300 nM and the inhibition at 20 µM came to 99%.
For `O=C(Nc1ccon1)c1ccc(Nc2nc3ccccc3n(CCN3CCOCC3)c2=O)cc1` [Compound 55, N-Isoxazol-3-yl-4-[4-(2-Morpholin-4-yl-ethyl)-3-oxo-3,4-dihydro-quinoxalin-2ylamino]-bezamide] the same measures were 260 nM and 97%.
For `COC(=O)c1ccc(Nc2nc3ccccc3n(CCN3CCOCC3)c2=O)cc1` [Compound 57], in that order: 1800 nM and 89%.
The molecule `O=C(NCc1cccs1)c1ccc(Nc2nc3ccccc3n(CCN3CCCCC3)c2=O)cc1` [Compound 62] yielded an inhibition at 20 µM of 95%.
On to `CN(C)CCn1c(=O)c(Nc2ccc(C(=O)NCc3cccs3)cc2)nc2ccccc21` [Compound 70], for which inhibition was half-maximal at 700 nM (IC50) and testing at 20 µM gave an inhibition of 99%.
Molecule `O=C(O)Cn1c(=O)c(Nc2ccc(C(=O)NCc3cccs3)cc2)nc2ccccc21` [Compound 75, (2-Oxo-3-{4-[(thiophen-2ylmethyl)-carbamoyl]-phenylamino}-2H-quinoxalin-1-yl)-acetic acid] displayed an IC50 of 5700 nM and an inhibition at 20 µM of 77%.
Take `Cn1c(=O)c(Nc2ccc(C(=O)NCc3ccccc3)cc2)nc2ccccc21` [Compound 78, N-Benzyl-4-(4-Methyl-3-oxo-3,4-dihydro-quinoxalin-2ylamino)-benzamide]: 690 nM corresponded to half-maximal inhibition (IC50) and the inhibition at 20 µM came to 96%.
